According to PubChem BioAssay (NCI):
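How tested: cells in 96-well plates exposed to compound for 48 hours at five concentrations. Definition used: TGI = concentration required for complete inhibition of growth.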

How the values were obtained:
Test in all cases: NCI anticancer screen, dose series, 48 h
UACC-62 melanoma = test system: UACC-62 melanoma
SNB-78 CNS = test system: SNB-78 CNS
A498 renal = test system: A498 renal
DMS 273 small cell lung = test system: DMS 273 small cell lung
HOP-92 NSCLC = test system: HOP-92 NSCLC
MOLT-4 leukemia = test system: MOLT-4 leukemia
M14 melanoma = test system: M14 melanoma
ACHN renal = test system: ACHN renal
UACC-257 melanoma = test system: UACC-257 melanoma
KM20L2 colon = test system: KM20L2 colon
NCI-H460 lung = test system: NCI-H460 lung
MALME-3M melanoma = test system: MALME-3M melanoma
HCT-116 colon = test system: HCT-116 colon
HOP-62 NSCLC = test system: HOP-62 NSCLC
MDA-N = test system: MDA-N
DU-145 prostate = test system: DU-145 prostate
PC-3 prostate = test system: PC-3 prostate
MCF7 breast = test system: MCF7 breast

## NNC(=S)N/N=C/C(Cl)=C(\Cl)C(=O)O
UACC-62 melanoma
  TGI: > 100 µM
SNB-78 CNS
  TGI: > 100 µM
A498 renal
  TGI: > 100 µM
DMS 273 small cell lung
  TGI: > 100 µM
HOP-92 NSCLC
  TGI: > 100 µM
MOLT-4 leukemia
  TGI: > 100 µM
M14 melanoma
  TGI: > 100 µM
ACHN renal
  TGI: > 100 µM
UACC-257 melanoma
  TGI: > 100 µM
KM20L2 colon
  TGI: > 100 µM
NCI-H460 lung
  TGI: > 100 µM
MALME-3M melanoma
  TGI: > 100 µM
HCT-116 colon
  TGI: > 100 µM

## C1=c2ccccc2=C2C(=C(c3ccccc3)C(c3ccccc3)=NN2c2ccccc2)S1
UACC-62 melanoma
  TGI: > 100 µM
SNB-78 CNS
  TGI: > 100 µM
A498 renal
  TGI: > 100 µM
DMS 273 small cell lung
  TGI: > 100 µM
HOP-92 NSCLC
  TGI: > 100 µM
HOP-62 NSCLC
  TGI: > 100 µM
MOLT-4 leukemia
  TGI: > 100 µM
M14 melanoma
  TGI: > 100 µM
ACHN renal
  TGI: > 100 µM
UACC-257 melanoma
  TGI: > 100 µM
KM20L2 colon
  TGI: > 100 µM
NCI-H460 lung
  TGI: > 100 µM
MALME-3M melanoma
  TGI: > 100 µM
HCT-116 colon
  TGI: > 100 µM

## O=C1C2Nc3ccccc3SC2C(=O)N1c1cccc([N+](=O)[O-])c1 (stereo unspecified)
UACC-62 melanoma
  TGI: > 100 µM
SNB-78 CNS
  TGI: > 100 µM
A498 renal
  TGI: > 100 µM
DMS 273 small cell lung
  TGI: > 100 µM
HOP-92 NSCLC
  TGI: > 100 µM
HOP-62 NSCLC
  TGI: > 100 µM
MOLT-4 leukemia
  TGI: > 100 µM
M14 melanoma
  TGI: > 100 µM
ACHN renal
  TGI: > 100 µM
UACC-257 melanoma
  TGI: > 100 µM
KM20L2 colon
  TGI: > 100 µM
NCI-H460 lung
  TGI: > 100 µM
MALME-3M melanoma
  TGI: > 100 µM
HCT-116 colon
  TGI: > 100 µM

## C=C1CC(C/C=C(\C)CC2CC(=C)C(=O)O2)OC1=O (stereo unspecified)
UACC-62 melanoma
  TGI: > 100 µM
SNB-78 CNS
  TGI: > 100 µM
A498 renal
  TGI: > 100 µM
DMS 273 small cell lung
  TGI: > 100 µM
HOP-92 NSCLC
  TGI: > 100 µM
HOP-62 NSCLC
  TGI: > 100 µM
MOLT-4 leukemia
  TGI: > 100 µM
M14 melanoma
  TGI: > 100 µM
ACHN renal
  TGI: > 100 µM
UACC-257 melanoma
  TGI: > 100 µM
KM20L2 colon
  TGI: > 100 µM
NCI-H460 lung
  TGI: > 100 µM
MALME-3M melanoma
  TGI: > 100 µM
HCT-116 colon
  TGI: > 100 µM

## COc1ccc(C2C(Cl)C(=O)N2NC(=O)c2ccc(N)cc2)cc1OC (stereo unspecified)
UACC-62 melanoma
  TGI: 16 µM
SNB-78 CNS
  TGI: > 100 µM
A498 renal
  TGI: 31.5 µM
DMS 273 small cell lung
  TGI: 11.8 µM
MDA-N
  TGI: 23.5 µM
HOP-92 NSCLC
  TGI: 5.07 µM
DU-145 prostate
  TGI: 32.1 µM
HOP-62 NSCLC
  TGI: 32.6 µM
PC-3 prostate
  TGI: 25.7 µM
MOLT-4 leukemia
  TGI: 5.16 µM
M14 melanoma
  TGI: 22.6 µM
ACHN renal
  TGI: 26.9 µM
UACC-257 melanoma
  TGI: 29.1 µM
KM20L2 colon
  TGI: 27.8 µM
NCI-H460 lung
  TGI: 51.8 µM
MALME-3M melanoma
  TGI: 25.6 µM
MCF7 breast
  TGI: 24.7 µM
HCT-116 colon
  TGI: 3 µM

## Cn1c2c(cc(-c3ccccc3)c1=O)COc1ccccc1-2
UACC-62 melanoma
  TGI: 28.9 µM
SNB-78 CNS
  TGI: > 100 µM
A498 renal
  TGI: > 100 µM
DMS 273 small cell lung
  TGI: 43.8 µM
HOP-92 NSCLC
  TGI: > 100 µM
HOP-62 NSCLC
  TGI: > 100 µM
MOLT-4 leukemia
  TGI: 47.2 µM
M14 melanoma
  TGI: 94.4 µM
ACHN renal
  TGI: 91.9 µM
UACC-257 melanoma
  TGI: > 100 µM
KM20L2 colon
  TGI: > 100 µM
NCI-H460 lung
  TGI: 70.7 µM
MALME-3M melanoma
  TGI: 50.8 µM
HCT-116 colon
  TGI: 37.9 µM

## CC1=NN(c2ccccc2)C(=O)C1=C1SCCCS1
UACC-62 melanoma
  TGI: 39.7 µM
SNB-78 CNS
  TGI: > 100 µM
A498 renal
  TGI: 90.7 µM
DMS 273 small cell lung
  TGI: > 100 µM
HOP-92 NSCLC
  TGI: 64 µM
HOP-62 NSCLC
  TGI: > 100 µM
MOLT-4 leukemia
  TGI: 36.1 µM
M14 melanoma
  TGI: > 100 µM
ACHN renal
  TGI: > 100 µM
UACC-257 melanoma
  TGI: 94.1 µM
KM20L2 colon
  TGI: > 100 µM
NCI-H460 lung
  TGI: > 100 µM
MALME-3M melanoma
  TGI: > 100 µM
HCT-116 colon
  TGI: 31.7 µM

## COC(=O)/C(=N\O)C(C(=O)C=C(C)C)C(=O)C(=O)Nc1ccccc1C (stereo unspecified)
UACC-62 melanoma
  TGI: > 100 µM
SNB-78 CNS
  TGI: > 100 µM
A498 renal
  TGI: > 100 µM
DMS 273 small cell lung
  TGI: > 100 µM
HOP-92 NSCLC
  TGI: > 100 µM
HOP-62 NSCLC
  TGI: > 100 µM
MOLT-4 leukemia
  TGI: > 100 µM
M14 melanoma
  TGI: > 100 µM
ACHN renal
  TGI: > 100 µM
UACC-257 melanoma
  TGI: > 100 µM
KM20L2 colon
  TGI: > 100 µM
NCI-H460 lung
  TGI: > 100 µM
MALME-3M melanoma
  TGI: > 100 µM
HCT-116 colon
  TGI: > 100 µM

## O=C(/C=C/c1ccc(Cl)c(Cl)c1)C1CCC(Cl)CC1 (stereo unspecified)
UACC-62 melanoma
  TGI: 31.2 µM
SNB-78 CNS
  TGI: 42.3 µM
A498 renal
  TGI: 83.1 µM
DMS 273 small cell lung
  TGI: 32.1 µM
HOP-92 NSCLC
  TGI: 86.6 µM
HOP-62 NSCLC
  TGI: > 100 µM
M14 melanoma
  TGI: 33.4 µM
ACHN renal
  TGI: 32 µM
UACC-257 melanoma
  TGI: 35.1 µM
KM20L2 colon
  TGI: 46.7 µM
NCI-H460 lung
  TGI: 73.8 µM
MALME-3M melanoma
  TGI: 41.1 µM
HCT-116 colon
  TGI: 25.1 µM

## CCOC(=O)c1cn2c([nH]c3ccccc32)c(C#N)c1=O
UACC-62 melanoma
  TGI: > 100 µM
SNB-78 CNS
  TGI: > 100 µM
A498 renal
  TGI: > 100 µM
DMS 273 small cell lung
  TGI: > 100 µM
HOP-92 NSCLC
  TGI: > 100 µM
HOP-62 NSCLC
  TGI: > 100 µM
MOLT-4 leukemia
  TGI: > 100 µM
M14 melanoma
  TGI: > 100 µM
ACHN renal
  TGI: > 100 µM
UACC-257 melanoma
  TGI: > 100 µM
KM20L2 colon
  TGI: > 100 µM
NCI-H460 lung
  TGI: > 100 µM
MALME-3M melanoma
  TGI: > 100 µM
HCT-116 colon
  TGI: > 100 µM

## CCCOCN1COCN=C1NC#N
UACC-62 melanoma
  TGI: > 100 µM
SNB-78 CNS
  TGI: > 100 µM
A498 renal
  TGI: > 100 µM
DMS 273 small cell lung
  TGI: 41.9 µM
HOP-92 NSCLC
  TGI: > 100 µM
HOP-62 NSCLC
  TGI: > 100 µM
MOLT-4 leukemia
  TGI: > 100 µM
M14 melanoma
  TGI: > 100 µM
ACHN renal
  TGI: > 100 µM
UACC-257 melanoma
  TGI: > 100 µM
KM20L2 colon
  TGI: > 100 µM
NCI-H460 lung
  TGI: > 100 µM
MALME-3M melanoma
  TGI: > 100 µM
HCT-116 colon
  TGI: > 100 µM

## CCOC(=O)c1c(C(F)(F)F)oc2c1ccc1nc3nonc3nc12
UACC-62 melanoma
  TGI: 29.1 µM
SNB-78 CNS
  TGI: 23.2 µM
A498 renal
  TGI: 30.7 µM
DMS 273 small cell lung
  TGI: 34.4 µM
HOP-92 NSCLC
  TGI: 27.3 µM
HOP-62 NSCLC
  TGI: 18.9 µM
MOLT-4 leukemia
  TGI: 12.6 µM
M14 melanoma
  TGI: 21 µM
ACHN renal
  TGI: 29.4 µM
UACC-257 melanoma
  TGI: 27.9 µM
KM20L2 colon
  TGI: 36.5 µM
NCI-H460 lung
  TGI: 49.6 µM
MALME-3M melanoma
  TGI: 32 µM
HCT-116 colon
  TGI: 32.1 µM

## O=S(Cc1cc2c(cc1Br)OCO2)c1ccccc1 (stereo unspecified)
UACC-62 melanoma
  TGI: > 100 µM
SNB-78 CNS
  TGI: > 100 µM
A498 renal
  TGI: > 100 µM
DMS 273 small cell lung
  TGI: > 100 µM
HOP-92 NSCLC
  TGI: > 100 µM
HOP-62 NSCLC
  TGI: > 100 µM
MOLT-4 leukemia
  TGI: > 100 µM
M14 melanoma
  TGI: > 100 µM
ACHN renal
  TGI: > 100 µM
UACC-257 melanoma
  TGI: > 100 µM
KM20L2 colon
  TGI: > 100 µM
NCI-H460 lung
  TGI: > 100 µM
MALME-3M melanoma
  TGI: > 100 µM
HCT-116 colon
  TGI: > 100 µM

## COc1ccc(/C(Cl)=C/c2ccc(Cl)c(Cl)c2)cc1
UACC-62 melanoma
  TGI: > 100 µM
SNB-78 CNS
  TGI: 72.1 µM
A498 renal
  TGI: 72.8 µM
DMS 273 small cell lung
  TGI: 67.5 µM
HOP-92 NSCLC
  TGI: 78.7 µM
HOP-62 NSCLC
  TGI: 79 µM
MOLT-4 leukemia
  TGI: 37 µM
M14 melanoma
  TGI: > 100 µM
ACHN renal
  TGI: 91.6 µM
UACC-257 melanoma
  TGI: 66.2 µM
KM20L2 colon
  TGI: 63.7 µM
MALME-3M melanoma
  TGI: 56.8 µM
HCT-116 colon
  TGI: 80.3 µM

## N#C/C(=C\c1ccc(O)cc1O)C(N)=O
UACC-62 melanoma
  TGI: > 100 µM
SNB-78 CNS
  TGI: > 100 µM
A498 renal
  TGI: > 100 µM
DMS 273 small cell lung
  TGI: > 100 µM
HOP-92 NSCLC
  TGI: > 100 µM
HOP-62 NSCLC
  TGI: > 100 µM
MOLT-4 leukemia
  TGI: > 100 µM
M14 melanoma
  TGI: > 100 µM
ACHN renal
  TGI: > 100 µM
UACC-257 melanoma
  TGI: > 100 µM
KM20L2 colon
  TGI: > 100 µM
NCI-H460 lung
  TGI: > 100 µM
MALME-3M melanoma
  TGI: > 100 µM
HCT-116 colon
  TGI: > 100 µM
